Results reported in PubChem BioAssay AID1919013 (Molecular Pharmacology Branch, DTP, NCI, 2023).

System: LG0703-F498-PDC complex spheroid growth
Assay: Anticancer human tumor LG0703-F498-PDC patient-derived lung adenocarcinoma cell line growth inhibition [AhR]
Settings: for IC50: curve of first compound; for viability, T/C: stronger effect = lower value
Summary of the method: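 Complex tumor spheroids co-cultured with HUVEC and human MSC stroma; AhR antagonists tested in combination with standard-of-care and investigational agents. Top concentration at or near clinical Cmax (else 10 microM), half-log dilutions; growth expressed as percent test/control.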

[1] = second compound 0.1 µM, first compound 0.0316 µM
[2] = second compound 0.1 µM, first compound 0.1 µM
[3] = second compound 0.1 µM, first compound 0.316 µM
[4] = second compound 0.1 µM, first compound 1 µM
[5] = second compound 0.1 µM, first compound 3.16 µM
[6] = second compound 0.1 µM, first compound 10 µM
[7] = second compound 0.316 µM, first compound 0.0316 µM
[8] = second compound 0.316 µM, first compound 0.1 µM
[9] = second compound 0.316 µM, first compound 0.316 µM
[10] = second compound 0.316 µM, first compound 1 µM
[11] = second compound 0.316 µM, first compound 3.16 µM
[12] = second compound 0.316 µM, first compound 10 µM
[13] = second compound 1 µM, first compound 0.0316 µM
[14] = second compound 1 µM, first compound 0.1 µM
[15] = second compound 1 µM, first compound 0.316 µM
[16] = second compound 1 µM, first compound 1 µM
[17] = second compound 1 µM, first compound 3.16 µM
[18] = second compound 1 µM, first compound 10 µM
[19] = second compound 3.16 µM, first compound 0.0316 µM
[20] = second compound 3.16 µM, first compound 0.1 µM
[21] = second compound 3.16 µM, first compound 0.316 µM
[22] = second compound 3.16 µM, first compound 1 µM
[23] = second compound 3.16 µM, first compound 3.16 µM
[24] = second compound 3.16 µM, first compound 10 µM
[25] = second compound 10 µM, first compound 0.0316 µM
[26] = second compound 10 µM, first compound 0.1 µM
[27] = second compound 10 µM, first compound 0.316 µM
[28] = second compound 10 µM, first compound 1 µM
[29] = second compound 10 µM, first compound 3.16 µM
[30] = second compound 10 µM, first compound 10 µM
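Also: luminescence taken as a proxy for viable cell amount.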
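For viability, T/C in this document: percent of DMSO vehicle control where 100% means growth equal to vehicle.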

Row | SMILES | IC50 (second compound 0.1 µM) | IC50 (second compound 0.316 µM) | IC50 (second compound 1 µM) | IC50 (second compound 3.16 µM) | IC50 (second compound 10 µM) | viability, T/C [1] | viability, T/C [2] | viability, T/C [3] | viability, T/C [4] | viability, T/C [5] | viability, T/C [6] | viability, T/C [7] | viability, T/C [8] | viability, T/C [9] | viability, T/C [10] | viability, T/C [11] | viability, T/C [12] | viability, T/C [13] | viability, T/C [14] | viability, T/C [15] | further results
1 | COc1cc(Nc2ncc3c(n2)-c2ccc(Cl)cc2C(c2c(F)cccc2OC)=NC3)ccc1C(=O)O + CC(CO)NC(=O)c1cc(-c2ccc(Cl)cc2)nn(-c2cnn(C)c2)c1=O | 6.88 µM | 8.34 µM | 5.11 µM | 4.36 µM | 3.25 µM | 87.2% | 88.2% | 78.5% | 71% | 61.7% | 44.4% | 94.9% | 79.2% | 78.9% | 70.2% | 56.3% | 48.8% | 91.6% | 96.2% | 75.1% | viability, T/C [16]: 68.2%; viability, T/C [17]: 56.4%; viability, T/C [18]: 42.7%; viability, T/C [19]: 91.6%; viability, T/C [20]: 75.2%; viability, T/C [21]: 70.7%; viability, T/C [22]: 63.9%; viability, T/C [23]: 50.3%; viability, T/C [24]: 44.5%; viability, T/C [25]: 92%; viability, T/C [26]: 77.4%; viability, T/C [27]: 65%; viability, T/C [28]: 65%; viability, T/C [29]: 52.7%; viability, T/C [30]: 37.6%
2 | O=C(C=Cc1cccc(S(=O)(=O)Nc2ccccc2)c1)NO + CC(CO)NC(=O)c1cc(-c2ccc(Cl)cc2)nn(-c2cnn(C)c2)c1=O | 0.607 µM | 0.636 µM | 0.667 µM | 0.69 µM | 0.727 µM | 106% | 112% | 77.3% | 28.5% | 7% | 1.6% | 105% | 101% | 77% | 32.4% | 7.34% | 1.04% | 102% | 106% | 77.8% | viability, T/C [16]: 34.6%; viability, T/C [17]: 8.18%; viability, T/C [18]: 1.73%; viability, T/C [19]: 105%; viability, T/C [20]: 108%; viability, T/C [21]: 74.4%; viability, T/C [22]: 39%; viability, T/C [23]: 7.73%; viability, T/C [24]: 1.63%; viability, T/C [25]: 101%; viability, T/C [26]: 121%; viability, T/C [27]: 81.8%; viability, T/C [28]: 37.6%; viability, T/C [29]: 8.76%; viability, T/C [30]: 1.23%
